Assay results: patent US8110682B2, “Preparation and use of compounds as aspartyl protease inhibitors” (Schering Corporation, priority 2005, dated 2012)

Target: T1, sproBACE1 (soluble human BACE1) (Homo sapiens, UniProt P56817)
T1 construct: sBACE1, corresponding to amino acids 1-454; myc (C); His (C); made in house; host or cells: Sf9 insect cells (baculovirus), secreted into medium
Test: BACE-1 peptide hydrolysis assay (HTRF, APPsw substrate)
Assay type: biochemical
Details: 7 nM sproBACE1, pH 5.0, 30° C.
Description: A predicted soluble form of human BACE1 (sBACE1, corresponding to amino acids 1-454) is generated from the full length BACE1 cDNA (full length human BACE1 cDNA in pcDNA4/mycHisA construct; University of Toronto) by PCR using the advantage-GC cDNA PCR kit (Clontech, Palo Alto, Calif.). A HindIII/Pmel fragment from pcDNA4-sBACE1 myc/His is blunt ended using Klenow and subcloned into the Stu I site of pFASTBACI(A) (Invitrogen). A sBACE1mycHis recombinant bacmid is generated by transposition in DH10Bac cells(GIBCO/BRL). Subsequently, the sBACE1 mycHis bacmid construct is transfected into sf9 cells using CellFectin (Invitrogen, San Diego, Calif.) in order to generate recombinant baculovirus. […]
Proteins, are eluted from the Q-sepharose column with Buffer B (20 mM HEPES, pH 8.0, 500 mM NaCl). […] Peak protein fractions as determined by the Bradford Assay (Biorad, Calif.) are concentrated using a Centricon 30 concentrator (Millipore). sBACE1 purity is estimated to be ˜90% as assessed by SDS-PAGE and Commassie Blue staining. […]
IC50 determinations for inhibitors, (I), are determined by measuring the percent change of the relative fluorescence at 665 nm divided by the relative fluorescence at 620 nm, (665/620 ratio), in the presence of varying concentrations of I and a fixed concentration of enzyme and substrate.

T1 sequence (P56817 22-454): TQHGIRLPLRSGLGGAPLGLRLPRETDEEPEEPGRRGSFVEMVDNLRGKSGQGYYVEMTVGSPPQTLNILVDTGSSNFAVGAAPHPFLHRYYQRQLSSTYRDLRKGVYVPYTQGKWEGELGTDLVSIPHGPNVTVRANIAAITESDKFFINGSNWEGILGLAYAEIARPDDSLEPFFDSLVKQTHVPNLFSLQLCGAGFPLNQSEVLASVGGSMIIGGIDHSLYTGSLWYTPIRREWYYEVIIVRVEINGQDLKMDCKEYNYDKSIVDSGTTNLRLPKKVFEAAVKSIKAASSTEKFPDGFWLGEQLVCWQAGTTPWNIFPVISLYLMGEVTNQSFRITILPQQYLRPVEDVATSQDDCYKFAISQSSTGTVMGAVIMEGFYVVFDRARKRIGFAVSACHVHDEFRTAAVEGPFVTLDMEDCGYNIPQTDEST

Ki: 1360 nM
SMILES: CN1C(=N)NC(C)(c2cccc(-c3cc(Cl)cc(Cl)c3)c2)N(C)C1=O (stereo not shown) [Example 7]
